Here are results for four compounds from patent US20040157910A1, “Method of treatment or prophylaxis” (SmithKline Beecham Corporation, priority 2003, published 2004).

Molecules are shown by their SMILES. Counter-ions that a name gives are not always drawn.

The subject of assay [1] is Restless Legs Syndrome. The following applies: RLS, cited from earlier work.
The test system of assay [2] is Restless Legs Syndrome. To be noted: RLS; well controlled studies prior to 1987; cited from earlier work.
Assay [3] deals with Restless Legs Syndrome. As to the kind of experiment: RLS patients treated with ropinirole (patient reports). The class given is in vivo, human. The following applies: almost at once.

For `N[C@@H](Cc1ccc(O)c(O)c1)C(=O)O` [L-dopa], the “time for which the effect has been maintained” value with Restless Legs Syndrome [1] (L-dopa) was 2 years. Also, the “patients in whom treatment was effective” value in the assay with Restless Legs Syndrome [1] (doses of L-dopa of 100 mg to 200 mg) is on record as 70 % of patients.
Consider `NC(=O)N1c2ccccc2C=Cc2ccccc21` [carbamazepine], for which the “efficacy compared with placebo” value in the assay on Restless Legs Syndrome [2] is “superior to placebos”.
Regarding `O=C1CN=C(c2ccccc2Cl)c2cc([N+](=O)[O-])ccc2N1` [clonazepam], the “efficacy compared with placebo” value with Restless Legs Syndrome [2] is reported as “superior to placebos”.
As for `CCCN(CCC)CCc1cccc2c1CC(=O)N2` [ropinirole, 4-[2-(di-n-propylamino)ethyl]-1,3-dihydro-2H-indolin-2-one hydrochloride], in the assay with Restless Legs Syndrome [3], the “improvement in condition reported by RLS patients” value was “dramatic improvement”.
